The source of these data is DBAASP.

Converted amounts (≈) assume the structure as drawn.

Among the test systems are Bacillus cereus; Pseudomonas aeruginosa; Shigella dysenteriae; Bacillus subtilis 168; Escherichia coli K-12.
Common to all, as to assay: ≥ marks a high value that may be exact or a test limit, other limits are often not marked, values filed in µg/mL are converted to µM
Assay [1] relates to Candida albicans ATCC 2002.
The test system of assay [2] is Escherichia coli ATCC 25922.
Assay [3] has as its system Pseudomonas aeruginosa CMCCB 10104.
Assay [4] relates to Staphylococcus aureus ATCC 25923.
The subject of assay [5] is Bacillus subtilis ATCC 6633.
Assay [6] concerns Klebsiella pneumoniae ATCC 10031.
Assay [7] concerns Micrococcus luteus ATCC 10240.
Assay [8] deals with Pseudomonas aeruginosa ATCC 27853.
In assay [9] the test system is Salmonella enterica subsp. enterica serovar Typhimurium ATCC 14028.
The test system of assay [10] is Shigella dysenteriae ATCC 9752.
The test system of assay [11] is Staphylococcus aureus ATCC 6538P.
For assay [12], the system named is Staphylococcus epidermidis ATCC 12228.
For assay [13], the system named is Staphylococcus aureus ATCC 2592.
Assay [14] relates to Pseudomonas aeruginosa PAO1.
Assay [15] concerns Staphylococcus aureus USA 300.
For assay [16], the system named is Staphylococcus aureus ATCC 6538.

As for `CC[C@H](C)[C@H](NC(=O)[C@H](Cc1ccccc1)NC(=O)[C@H](CCCCN)NC(=O)[C@H](CC(=O)O)NC(=O)[C@@H](NC(=O)[C@H](CC(C)C)NC(=O)[C@H](CC(=O)O)NC(=O)[C@H](CCC(=O)O)NC(=O)[C@H](C)NC(=O)[C@H](CC(=O)O)NC(=O)[C@H](CCC(=O)O)NC(=O)CNC(=O)[C@H](CC(N)=O)NC(=O)[C@H](CCC(=O)O)NC(=O)[C@@H](NC(=O)[C@H](CC(N)=O)NC(=O)[C@H](C)NC(=O)[C@@H](N)CC(=O)O)C(C)C)[C@@H](C)O)C(=O)NCC(=O)N[C@@H](CC(C)C)C(=O)N[C@@H](CCSC)C(=O)NCC(=O)O` [DANVENGEDAEDLTDKFIGLMG], the MIC was no less than 85 µM in assay [1], greater than 85 µM in assay [2], no less than 85 µM in assay [3] and greater than 85 µM in assay [4].

In the case of `C[C@H](NC(=O)[C@H](Cc1c[nH]c2ccccc12)NC(=O)[C@H](CCCCN)NC(=O)[C@H](C)NC(=O)[C@@H](N)Cc1ccccc1)C(=O)N[C@@H](Cc1ccccc1)C(=O)N[C@@H](CCCCN)C(=O)N[C@@H](Cc1c[nH]c2ccccc12)C(=O)N[C@@H](C)C(=O)N[C@@H](CCCCN)C(=O)N[C@@H](CCCCN)C(N)=O` [FAKWAFKWAKK], the MIC in [5] was 17.7 µM (≈ 25 µg/mL); in assay [2], 70.9 µM (≈ 99.9 µg/mL); in assay [6], no less than 142 µM; in assay [7], 17.7 µM (≈ 25 µg/mL); in assay [8], 142 µM (≈ 200 µg/mL); in [9], 142 µM (≈ 200 µg/mL). For the same compound, the results for the MIC in assay [10], in assay [11] and in assay [12] were no less than 35.4 µM, no less than 70.9 µM and 70.9 µM (≈ 99.9 µg/mL), respectively.

Turning to `CC[C@H](C)[C@H](NC(=O)CN)C(=O)N[C@@H](CC(C)C)C(=O)N[C@@H](CC(=O)O)C(=O)N[C@@H](C)C(=O)N[C@H](C(=O)N[C@@H](CCCCN)C(=O)N[C@@H](C)C(=O)N[C@@H](Cc1ccccc1)C(=O)N[C@@H](C)C(=O)N[C@@H](CC(N)=O)C(=O)N[C@@H](C)C(=O)N[C@@H](CC(C)C)C(=O)NCC(N)=O)[C@@H](C)CC` [GILDAIKAFANALG], the MIC in the assay with Bacillus cereus is 8.01 µM (≈ 11 µg/mL); in assay [5], 4 µM (≈ 5.5 µg/mL); in assay [1] it was no less than 48 µM; in assay [2] it was 32 µM (≈ 44 µg/mL); with Pseudomonas aeruginosa it was 4 µM (≈ 5.5 µg/mL); against Shigella dysenteriae, 2 µM (≈ 2.75 µg/mL). Moreover, the MIC in assay [13] turned out to be 4 µM (≈ 5.5 µg/mL).

Consider `CC[C@H](C)[C@H](NC(=O)CNC(=O)[C@H](CO)NC(=O)[C@H](CC(C)C)NC(=O)[C@H](CC(C)C)NC(=O)CN)C(=O)N[C@@H](CC(C)C)C(=O)NCC(=O)N[C@@H](C)C(=O)NCC(=O)N[C@@H](CCCCN)C(=O)N[C@@H](Cc1cnc[nH]1)C(=O)N[C@H](C(=O)N[C@H](C(=O)N[C@H]1CSSC[C@@H](C(=O)N[C@@H](C)C(=O)N[C@@H](CCCCN)C(=O)N[C@@H](C)C(=O)O)NC(=O)CNC(=O)[C@H]([C@@H](C)O)NC(=O)[C@H](CC(C)C)NC(=O)CNC1=O)C(C)C)[C@@H](C)CC` [GLLSGILGAGKHIVCGLTGCAKA], for which the MIC in assay [1] is 8.76 µM (≈ 18.7 µg/mL); in assay [2], greater than 46.7 µM; in the assay with Shigella dysenteriae, 17.5 µM (≈ 37.5 µg/mL); in assay [13], 4.38 µM (≈ 9.37 µg/mL).

Take `CC(C)C[C@H](NC(=O)[C@H](CCC(N)=O)NC(=O)[C@H](CCCCN)NC(=O)[C@H](Cc1ccc(O)cc1)NC(=O)[C@@H]1CCCN1C(=O)[C@H](CCC(N)=O)NC(=O)[C@H](C)NC(=O)[C@H](CO)NC(=O)CN)C(=O)N[C@@H](Cc1cnc[nH]1)C(=O)N[C@@H](CCCCN)C(=O)N[C@H](C(=O)N[C@H](C(=O)N[C@@H](CC(N)=O)C(=O)N[C@@H](Cc1c[nH]c2ccccc12)C(=O)N[C@@H](CC(=O)O)C(=O)N1CCC[C@H]1C(=O)N[C@@H](Cc1ccc(O)cc1)C(=O)NCC(=O)O)C(C)C)C(C)C` [GSAQPYKQLHKVVNWDPYG]: the minimum inhibitory concentration (MIC) is 13.7 µM (≈ 30 µg/mL) in [1], greater than 45.7 µM in assay [2], 27.4 µM (≈ 60 µg/mL) in the assay with Shigella dysenteriae and 6.86 µM (≈ 15 µg/mL) in assay [13].

In the case of `CC[C@H](C)[C@H](N)C(=O)N[C@@H](CCCCN)C(=O)N[C@@H](Cc1c[nH]c2ccccc12)C(=O)N[C@@H](CCCCN)C(=O)N[C@@H](CCCCN)C(=O)N[C@@H](CC(C)C)C(=O)N[C@@H](CC(C)C)C(=O)N[C@@H](CCCN=C(N)N)C(=O)N[C@@H](C)C(=O)N[C@@H](C)C(=O)N[C@@H](CCCCN)C(=O)N[C@@H](CCCN=C(N)N)C(=O)N[C@H](C(=O)N[C@@H](CC(C)C)C(N)=O)[C@@H](C)CC` [IKWKKLLRAAKRIL], the MIC with Bacillus subtilis 168 amounted to 12.5 µM (≈ 21.7 µg/mL); with Escherichia coli K-12 it was 3.1 µM (≈ 5.38 µg/mL); in assay [14], 6.25 µM (≈ 10.9 µg/mL); in assay [15], 6.2 µM (≈ 10.8 µg/mL).

As to `CC[C@H](C)[C@H](NC(=O)[C@H](CCSC)NC(=O)[C@H](CCCCN)NC(=O)[C@H](CCC(=O)O)NC(=O)[C@H](C)NC(=O)[C@H](CCCCN)NC(=O)[C@H](CCCCN)NC(=O)[C@H](Cc1ccccc1)NC(=O)[C@@H](NC(=O)[C@H](CCCCN)NC(=O)[C@H](Cc1c[nH]c2ccccc12)NC(=O)[C@@H](N)CCCCN)C(C)C)C(=O)N[C@@H](CCCN=C(N)N)C(=O)N[C@@H](CC(N)=O)C(=O)N[C@H](C(=O)N[C@@H](CCCN=C(N)N)C(=O)N[C@@H](CC(N)=O)C(=O)N[C@@H](CCCCN)C(=O)N[C@H](C(=O)N[C@H](C(=O)N[C@@H](CCCCN)C(N)=O)C(C)C)[C@@H](C)CC)[C@@H](C)CC` [KWKVFKKAEKMIRNIRNKIVK], the MIC in the assay on Escherichia coli K-12 is 3 µM (≈ 7.97 µg/mL); in assay [8], greater than 6 µM; in assay [16] it was greater than 25 µM.

With `CC(C)C[C@H](NC(=O)[C@H](CCCCN)NC(=O)[C@H](CCCCN)NC(=O)[C@H](CC(C)C)NC(=O)[C@H](Cc1c[nH]c2ccccc12)NC(=O)[C@H](CCCCN)NC(=O)[C@H](CC(C)C)NC(=O)[C@@H](N)CC(C)C)C(N)=O` [LLKWLKKL], the minimal inhibitory concentration (MIC) is no less than 48 µM in [5]; 96 µM (≈ 99.9 µg/mL) in [2]; no less than 192 µM in [6]; no less than 96 µM in assay [7]; 48 µM (≈ 50 µg/mL) in [8]; greater than 192 µM in assay [9]. The MIC was no less than 192 µM in assay [10], 24 µM (≈ 25 µg/mL) in assay [11] and 96 µM (≈ 99.9 µg/mL) in assay [12].

`CC[C@H](C)[C@H](NC(=O)[C@@H]1CCCN1C(=O)[C@H](Cc1cnc[nH]1)NC(=O)[C@H](CCCCN)NC(=O)[C@@H]1CCCN1C(=O)[C@@H](N)CCCNC(=N)N)C(=O)N[C@@H](CCCCN)C(=O)N[C@@H](Cc1cnc[nH]1)C(=O)N[C@@H](CCC(N)=O)C(=O)NCC(=O)N[C@@H](CC(C)C)C(=O)N1CCC[C@H]1C(=O)N[C@@H](CCC(N)=O)C(=O)N[C@@H](CCC(=O)O)C(=O)N[C@H](C(=O)N[C@@H](CC(C)C)C(=O)N[C@@H](CC(N)=O)C(=O)N[C@@H](CCC(=O)O)C(=O)N[C@@H](CC(N)=O)C(=O)N[C@@H](CC(C)C)C(=O)N[C@@H](CC(C)C)C(=O)N[C@@H](CCCNC(=N)N)C(=O)N[C@@H](Cc1ccccc1)C(=O)O)C(C)C` [RPKHPIKHQGLPQEVLNENLLRF]: the minimal inhibitory concentration (MIC) (in the assay with Escherichia coli K-12; in assay [15]) was no less than 100 µM in each case.

`CC[C@H](C)[C@H](NC(=O)[C@H](CCCN=C(N)N)NC(=O)[C@H](CCC(N)=O)NC(=O)[C@@H](NC(=O)[C@@H](NC(=O)[C@H](CCCN=C(N)N)NC(=O)[C@@H](N)CCCN=C(N)N)[C@@H](C)CC)C(C)C)C(=O)N[C@@H](CCCN=C(N)N)C(=O)N[C@@H](CC(=O)O)C(=O)N[C@@H](Cc1ccccc1)C(=O)N[C@@H](CC(C)C)C(=O)N[C@@H](CCCN=C(N)N)C(N)=O` [RRIVQRIRDFLR]: the MIC against Escherichia coli K-12 is 30 µM (≈ 48.8 µg/mL).

The MIC is the lowest concentration found to suppress growth.
